In patent US4939274A, “Hydroxybutenolide derivatives, production and use thereof” (Takeda Chemical Industries, Ltd., priority 1986, dated 1990):

Experiments:
[1] = system: lipid peroxide formation in rat brain tissue homogenate; test: Activity to inhibit lipid peroxide formation in rat brain tissue homogenate (TBA method); assay type: biochemical; details: 10^-5 M; 5% rat brain homogenate, 37° C., 1 hour; n=3, mean; vs. DMSO reference
Procedure: Male SD rats (12-week-old) were subjected to exsanguination under anesthesia with pentobarbital, then the brain was excised. The brain tissue was homogenized in a phosphate buffer (pH 7.4) to prepare a 5% homogenate. After incubation of the homogenate at 37° C. for 1 hour, the amount of lipid peroxides formed therein was determined by the thiobarbituric acid (TBA) method in accordance with the report of Ohkawa et al. on Analytical Biochemistry, 95, 351, (1979). The test drug was added to the 5% homogenate before incubation so as to make the final concentration be 10^-5 M The activity to inhibit the formation of lipid peroxide was compared with that of the reference group to which was added the solvent (DMSO), and shown by % inhibition.

mice = test: Acute toxicity in mice; assay type: in vivo; details: oral, 300 and 1000 mg/kg
Procedure: Male Crj-ICR mice (4-week-old, 21 to 26 g) were used. The animals, divided into groups, each consisting of six mice, were administered orally with compounds (4-c, 4-h) at the dosages of 300 and 1000 mg/kg, respectively. Then, each group was housed in a cage and observed for 24 hours.
The test drugs were suspended in gum arabic and administered at a volume of 0.1 ml/10 g.

[2] = system: ventricular arrhythmia during coronary artery occlusion-reperfusion in rat hearts; test: Activity to inhibit occurrence of ventricular arrhythmia during coronary artery occlusion-reperfusion in rat hearts; assay type: in vivo; details: 50 mg/kg, oral; for Ventricular fibrillation, Incidence (10 min.) / Ventricular tachycardia, Incidence (10 min.): 10 min. observation; for Ventricular fibrillation, Incidence (10 min.): control 4.1 ± 0.7; for Ventricular tachycardia, Incidence (10 min.): control 11.5 ± 5.0; for Ventricular tachycardia, Duration / Ventricular fibrillation, Duration: average ± SEM; for Ventricular tachycardia, Duration: control 26.5 ± 6.8; for Ventricular fibrillation, Duration: control 74.2 ± 30.8; for Exrasystole: control 11.0 ± 4.0; for Mortality: killed/tested animals, control 2/18
Excerpt: Male SD rats (9- to 13-week old, 250 to 370 g) were used. The animals were subjected to thoractonomy under artificial respiration while anesthesia was maintained by administering pentobarbital. […] By recording standard limb lead II electrocardiograms, occurrence of ventricular arrhythmia was examined.
Incidences of ventricular fibrillation and ventricular tachycardia are shown by the percentage of the number of animals presenting the symptoms relative to the number of animals subjected to the test, and the duration of the symptoms was shown in average ±SEM by seconds. Extrasystole is shown by the number of systole/min., and the mortality is shown by the percentage of the number of killed animals relative to the number of test animals.

CCCCCOc1ccc(C2=C(O)COC2=O)cc1 [Compound 4-a]
Inhibition rate (lipid peroxide formation) [1]: 57.1%

CCCCCCCOc1ccc(C2=C(O)COC2=O)cc1 [Compound 4-b]
Inhibition rate (lipid peroxide formation) [1]: 100.0%

CCCCCCCCCCOc1ccc(C2=C(O)C(C)OC2=O)cc1 (stereo not shown) [Compound 4-d]
Inhibition rate (lipid peroxide formation) [1]: 100.0%

CCCCCCCCCCOc1ccc(C2=C(O)C(c3ccccc3)OC2=O)cc1 (stereo not shown) [Compound 4-e]
Inhibition rate (lipid peroxide formation) [1]: 100.0%

CCCCCCCCCCCOc1ccc(C2=C(O)COC2=O)cc1 [Compound 4-f]
Inhibition rate (lipid peroxide formation) [1]: 89.7%

CCCCCCCCCCCOc1ccc(C2=C(O)C(c3ccccc3)OC2=O)cc1 (stereo not shown) [Compound 4-g, 2-(4-undecyloxyphenyl)-3-hydroxy-4-phenyl-2-buten-4-olide]
Inhibition rate (lipid peroxide formation) [1]: 100.0%

CCCCCCCCCCCCOc1ccc(C2=C(O)COC2=O)cc1 [Compound 4-h, 2-(4-dodecyloxyphenyl)-3-hydroxy-2-buten-4-olide]
Inhibition rate (lipid peroxide formation) [1]: 100.0% | recovery from sedation and ptosis (mice): ≤ 3 h | state of sedation and ptosis, animals affected (mice; six mice per group): half number of the test animals

CCCCCCCCCCCCOc1ccc(C2=C(O)C(C)OC2=O)cc1 (stereo not shown) [Compound 4-i]
Inhibition rate (lipid peroxide formation) [1]: 100.0%

CCCCCCCCCCCCCCOc1ccc(C2=C(O)COC2=O)cc1 [Compound 4-j]
Inhibition rate (lipid peroxide formation) [1]: 100.0%

CCCCCCCCCCCCCCCCCCOc1ccc(C2=C(O)COC2=O)cc1 [Compound 4-k]
Inhibition rate (lipid peroxide formation) [1]: 80.1%

O=C1O[C@H]([C@@H](O)CO)C(O)=C1O [Vitamin C, ascorbic acid]
Inhibition rate (lipid peroxide formation) [1]: -71.6% | effect on ventricular arrhythmia [2]: no significant effect | Ventricular fibrillation, Incidence (10 min.) [2]: 5.4 ± 0.8 | Ventricular tachycardia, Incidence (10 min.) [2]: 9.5 ± 1.8 | Ventricular tachycardia, Duration [2]: 12.0 ± 2.9 s | Ventricular fibrillation, Duration [2]: 74.1 ± 36.0 s | Exrasystole [2]: 11.0 ± 0.8 times/min. | Mortality [2]: 1/12

Cc1c(C)c2c(c(C)c1O)CC[C@@](C)(CCC[C@H](C)CCC[C@H](C)CCCC(C)C)O2 [Vitamin E, α-tocopherol]
Inhibition rate (lipid peroxide formation) [1]: 44.9% | effect on ventricular arrhythmia [2]: no significant effect | Ventricular fibrillation, Incidence (10 min.) [2]: 2.0 ± 0.7 | Ventricular tachycardia, Incidence (10 min.) [2]: 3.7 ± 1.5 | Ventricular tachycardia, Duration [2]: 22.3 ± 9.7 s | Ventricular fibrillation, Duration [2]: 43.4 ± 36.0 s | Exrasystole [2]: 7.0 ± 4.1 times/min. | Mortality [2]: 1/10
